Key:
[1] = biological target: T1, recombinant human Meningioma Expressed Antigen 5 (MGEA5), also referred to as O-GlcNAcase (OGA) (Homo sapiens, UniProt O60502); experiment: OGA biochemical assay (inhibition of FM-GlcNAc hydrolysis, fluorescence); conditions: for Emax / Enzymatic Emax (%): maximal effect; for Emax: read-out: Enzymatic Emax (%); for IC50: read-out: Enzymatic hOGA, pIC50 (converted)
T1 construct: Full length OGA enzyme was purchased at OnGene (cat #TP322411); purchased OnGene (so in the source)
T1 sequence (O60502 1-916): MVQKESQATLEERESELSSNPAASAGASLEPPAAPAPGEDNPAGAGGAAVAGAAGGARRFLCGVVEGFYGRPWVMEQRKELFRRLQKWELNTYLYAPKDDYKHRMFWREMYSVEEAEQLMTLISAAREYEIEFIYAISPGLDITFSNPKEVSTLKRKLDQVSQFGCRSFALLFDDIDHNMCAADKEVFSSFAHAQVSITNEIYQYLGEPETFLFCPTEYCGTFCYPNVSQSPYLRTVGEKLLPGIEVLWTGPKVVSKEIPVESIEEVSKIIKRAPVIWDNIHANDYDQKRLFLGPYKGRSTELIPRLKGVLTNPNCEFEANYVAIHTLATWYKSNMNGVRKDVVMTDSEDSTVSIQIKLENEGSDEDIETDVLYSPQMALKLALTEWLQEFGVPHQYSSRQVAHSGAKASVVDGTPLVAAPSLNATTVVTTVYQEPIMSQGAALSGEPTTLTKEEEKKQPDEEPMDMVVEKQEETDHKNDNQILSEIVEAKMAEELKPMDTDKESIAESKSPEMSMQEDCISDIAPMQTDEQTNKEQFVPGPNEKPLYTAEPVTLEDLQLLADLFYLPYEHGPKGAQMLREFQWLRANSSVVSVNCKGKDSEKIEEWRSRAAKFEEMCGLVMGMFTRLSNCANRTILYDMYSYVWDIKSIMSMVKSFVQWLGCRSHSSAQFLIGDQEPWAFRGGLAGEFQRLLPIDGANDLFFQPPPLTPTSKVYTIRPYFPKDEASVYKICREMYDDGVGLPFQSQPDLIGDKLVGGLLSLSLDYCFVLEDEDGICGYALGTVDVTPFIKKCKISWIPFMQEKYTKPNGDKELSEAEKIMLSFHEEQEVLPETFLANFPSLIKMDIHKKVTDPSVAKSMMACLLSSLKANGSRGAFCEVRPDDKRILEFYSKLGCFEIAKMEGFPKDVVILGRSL
Outline: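 Full-length recombinant OGA (2 nM) pre-incubated with compound 60 min at room temperature, then FM-GlcNAc (100 µM final) added in citrate/phosphate buffer pH 7.2 with 0.005% Tween-20. After 6 h at room temperature, stopped with carbonate pH 11.0; fluorescein read at 485/538 nm; IC50 and Hill coefficient from curve fit.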

OGA = biological target: T2, OGA (Homo sapiens, UniProt O60502); experiment: OGA cellular assay (ICC detection of O-GlcNAcylated proteins in HEK293 cells inducible for P301L mutant human Tau); type: cell-based; conditions: for EC50 / Cellular Emax (%): HEK293 cells inducible for P301L mutant human Tau; for EC50: 6 hours incubation, read-out: Cellular hOGA, pEC50 (converted); for Cellular Emax (%) / Emax: maximal effect, Thiamet G 200 uM as maximum; for Emax: HEK293, HEK293 cells inducible for P301L mutant human Tau
T2 construct: endogenous in cells; host or cells: HEK293 cells inducible for P301L mutant human Tau (2N4R)
T2 sequence (O60502 1-916): T1 sequence (O60502 1-916)
Description: HEK293 cells inducible for P301L mutant human Tau (isoform 2N4R) were established at Janssen. Thiamet-G was used for both plate validation (high control) and as reference compound (reference EC50 assay validation). OGA inhibition is evaluated through the immunocytochemical (ICC) detection of O-GlcNAcylated proteins by the use of a monoclonal antibody (CTD110.6; Cell Signaling, #9875) detecting 0-GlcNAcylated residues as previously described (Dorfmueller et al. 2010 Chemistry & biology, 17:1250). Inhibition of OGA will result in an increase of O-GlcNAcylated protein levels resulting in an increased signal in the experiment. Cell nuclei are stained with Hoechst to give a cell culture quality control and a rough estimate of immediate compounds toxicity, if any. ICC pictures are imaged with a Perkin Elmer Opera Phenix plate microscope and quantified with the provided software Perkin Elmer Harmony 4.1.
Cells were propagated in DMEM high Glucose (Sigma, #D5796) following standard procedures. 2 days before the cell assay cells are split, counted and seeded in Poly-D-Lysine (PDL) coated 96-wells (Greiner, #655946) plate at a cell density of 12,000 cells per cm^2 (4,000 cells per well) in 100 μl of Assay Medium (Low Glucose medium is used to reduce basal levels of GlcNAcylation) (Park et al. 2014 The Journal of biological chemistry 289:13519). At the day of compound test medium from assay plates was removed and replenished with 90 μl of fresh Assay Medium. 10 μl of compounds at a 10 fold final concentration were added to the wells. Plates were centrifuged shortly before incubation in the cell incubator for 6 hours. DMSO concentration was set to 0.2%. Medium is discarded by applying vacuum. For staining of cells medium was removed and cells washed once with 100 μl D-PBS (Sigma, #D8537). From next step onwards unless other stated assay volume was always 50 μl and incubation was performed without agitation and at room temperature. Cells were fixed in 50 μl of a 4% paraformaldehyde (PFA, Alpha aesar, #043368) PBS solution for 15 minutes at room temperature. […] Before analysis samples were washed 2 times manually for 5 minutes in ICC base buffer.
Imaging is performed using Perkin Elmer Phenix Opera using a water 20× objective and recording 9 fields per well. Intensity readout at 488 nm is used as a measure of O-GlcNAcylation level of total proteins in wells. To assess potential toxicity of compounds nuclei were counted using the Hoechst staining. IC50-values are calculated using parametric non-linear regression model fitting. As a maximum inhibition Thiamet G at a 200 uM concentration is present on each plate. In addition, a concentration response of Thiamet G is calculated on each plate.

Row | Structure (SMILES) | Emax [1] | IC50 [1] | EC50 (OGA) | Cellular Emax (%) (OGA) | Enzymatic Emax (%) [1] | Emax (OGA)
1 | Cc1cc(OC[C@H]2CCCN(C(C)c3ccc4c(n3)OCCO4)C2)nc(C)n1 (single isomer, unassigned) [Product 162] | 93% | 794 nM | > 1000 nM | 3% | – | –
2 | Cc1cc(OC[C@H]2CCCN(C(C)c3ccc4c(n3)OCCO4)C2)nc(C)n1 (single isomer, unassigned) [Product 163] | – | 7.94 nM | 45.7 nM | 82% | 100% | –
3 | Cc1cc([C@H]2CCCN(C(C)c3nc4c(cc3F)OCCO4)C2)cc(C)n1 (single isomer, unassigned) [Product 164] | 100% | 3.16 nM | 6.31 nM | – | – | 86%
4 | Cc1cc([C@@H]2CCCN(C(C)c3nc4c(cc3F)OCCO4)C2)cc(C)n1 (single isomer, unassigned) [Product 165] | 100% | 63.1 nM | 100 nM | – | – | 80%
5 | Cc1cc(CO[C@H]2CCCN(C(C)c3ccc4c(n3)OCCO4)C2)cc(C)n1 (single isomer, unassigned) [Product 166] | 98% | 10 nM | 100 nM | 67% | – | –
6 | Cc1cc(CO[C@H]2CCCN(C(C)c3ccc4c(n3)OCCO4)C2)cc(C)n1 (single isomer, unassigned) [Product 167] | – | 158 nM | > 1000 nM | 26% | 97% | –
7 | Cc1cc(CO[C@H]2CCCN(C(C)c3nc4c(cc3F)OCCO4)C2)cc(C)n1 (single isomer, unassigned) [Product 169] | 85% | 2000 nM | > 1000 nM | −5% | – | –
8 | Cc1cc(CO[C@H]2CCCN(C(C)c3nc4c(cc3F)OCCO4)C2)cc(C)n1 (single isomer, unassigned) [Product 170] | – | 3.16 nM | 12.6 nM | 79% | 98% | –
9 | Cc1cc([C@H]2CCCN(C(C)c3nc4c(cc3F)CCO4)C2)cc(C)n1 (single isomer, unassigned) [Product 171] | 100% | 2.51 nM | 2.51 nM | – | – | 78%
10 | Cc1cc(CC2(F)CCCN([C@H](C)c3nc4c(cc3F)OCCO4)C2)cc(C)n1 (single isomer, unassigned) [Product 174] | 99% | 6.31 nM | 63.1 nM | – | – | 75%
11 | Cc1cc(CC2(F)CCCN([C@@H](C)c3nc4c(cc3F)OCCO4)C2)cc(C)n1 (single isomer, unassigned) [Product 175] | 92% | 1000 nM | > 1000 nM | – | – | 1%
12 | Cc1cc(CC2(F)CCCN([C@H](C)c3ccc4c(n3)OCCO4)C2)cc(C)n1 (single isomer, unassigned) [Product 176] | 99% | 15.8 nM | 126 nM | – | – | 69%
13 | Cc1cc(CC2(F)CCCN([C@@H](C)c3ccc4c(n3)OCCO4)C2)cc(C)n1 (single isomer, unassigned) [Product 177] | 81% | 2510 nM | > 1000 nM | – | – | -8%
14 | Cc1cc(OC[C@H]2CCCN(C(C)c3nc4c(cc3F)CCO4)C2)cc(C)n1 (single isomer, unassigned) [Product 179] | 100% | 200 nM | 251 nM | – | – | 72%
15 | Cc1cc(OC[C@H]2CCCN(C(C)c3nc4c(cc3F)CCO4)C2)cc(C)n1 (single isomer, unassigned) [Product 180] | – | 1.58 nM | 1 nM | 79% | 99% | –
16 | COc1cc(OC[C@H]2CCCN([C@H](C)c3ccc4c(n3)OCCO4)C2)cc(C)n1 (single isomer, unassigned) [Product 183] | 99% | 7.94 nM | 50.1 nM | – | – | 65%
17 | COc1cc(OC[C@H]2CCCN(C(C)c3ccc4c(n3)OCCO4)C2)cc(C)n1 (single isomer, unassigned) [Product 184] | 87% | 2000 nM | > 1000 nM | – | – | -17%
18 | Cc1cc([C@H]2CCCN([C@H](C)c3ccc4c(n3)OCCO4)C2)c(F)c(C)n1 (single isomer, unassigned) [Product 186] | 83% | 2000 nM | > 1000 nM | – | – | -6%
19 | Cc1cc(C2CCCN(C(C)c3ccc4c(n3)OCCO4)C2)cc(C)n1 (stereo not shown) [Product 1] | 102% | 20 nM | 100 nM | – | – | 77%
20 | COc1cc(C2CCCN(C(C)c3ccc4c(n3)OCCO4)C2)cc(C)n1 (stereo not shown) [Product 7] | 103% | 12.6 nM | 100 nM | – | – | 77%
21 | Cc1cc(C2CCCN(C(C)c3ccc4c(n3)OCCO4)C2)cc(C(F)(F)F)n1 (stereo not shown) [Product 8] | 100% | 15.8 nM | 200 nM | – | – | 86%
22 | Cc1cc(C2CCCN(C(C)c3cc4c(cc3F)OCCO4)C2)cc(C(F)(F)F)n1 (stereo not shown) [Product 9] | 102% | 10 nM | 50.1 nM | – | – | 92%
23 | COc1cc(C2CCCN(C(C)c3ccc4c(n3)OCCO4)C2)cc(C(F)(F)F)n1 (stereo not shown) [Product 10] | 100% | 25.1 nM | 977 nM | – | – | 52%
24 | COc1cc(C2CCCN(C(C)c3cc4c(cc3F)OCCO4)C2)cc(C(F)(F)F)n1 (stereo not shown) [Product 11] | 103% | 20 nM | 316 nM | – | – | 70%
25 | Cc1cc(OC2CCCN(C(C)c3cnc4c(c3)OCCN4)C2)cc(C)n1 (stereo not shown) [Product 14] | 101% | 5.01 nM | 631 nM | – | – | 60%
26 | Cc1cc(OC2CCCN(C(C)c3cc4c(cc3F)OCCO4)C2)cc(C(F)(F)F)n1 (stereo not shown) [Product 15] | 103% | 20 nM | > 1000 nM | – | – | 16%
27 | COc1cc(OC2CCCN(C(C)c3ccc4c(n3)OCCO4)C2)cc(C)n1 (stereo not shown) [Product 18] | 100% | 50.1 nM | 794 nM | – | – | 57%
28 | Cc1cc(NCC2CCCN(C(C)c3ccc4c(n3)OCCO4)C2)cc(C)n1 (stereo not shown) [Product 21] | 103% | 5.01 nM | 15.8 nM | – | – | 88%

From patent US20210300943A1, “OGA INHIBITOR COMPOUNDS” (Janssen Pharmaceutica NV, priority 2018, published 2021)
